Organism: Rattus norvegicus
Test: Open TG-GATES - Regimen: Daily Repeat
Assay type: toxicity, organism-based, Sprague-Dawley
Design: regimen Daily Repeat, gender Male, age 6 weeks
Conditions: in vivo, po, 100 mg/kg, route gavage, dose level Low; for APTT / Bas / Eos / Fbg / Hb / Ht / Lym / MCH / MCHC / MCV / Mono / Neu / PT / Plat / RBC / Ret / WBC: tissue Blood; for KIDNEY_L / KIDNEY_R / KIDNEY_TOTAL: tissue Kidney; for LIVER: tissue Liver; for A/G / ALP / ALT / AST / BUN / CRE / Ca / Cl / DBIL / GLC / IP / K / LDH / Na / PL / RALB / TBIL / TC / TG / TP / gamma-GTP: tissue Plasma

CNC(=C[N+](=O)[O-])NCCSCc1ccc(CN(C)C)o1 [RANITIDINE]
TERMINAL_BW (72 h, time 3 day): 232 g | APTT (72 h, time 3 day): 19.5 s | Bas (72 h, time 3 day): 0% | Eos (72 h, time 3 day): 1.4% | Fbg (72 h, time 3 day): 221.4 mg/dL | Hb (72 h, time 3 day): 14 g/dL | Ht (72 h, time 3 day): 40.9% | Lym (72 h, time 3 day): 78.6% | MCH (72 h, time 3 day): 21.7 pg | MCHC (72 h, time 3 day): 34.2% | MCV (72 h, time 3 day): 63.3 fL | Mono (72 h, time 3 day): 2.6% | Neu (72 h, time 3 day): 15.8% | PT (72 h, time 3 day): 11.9 s | Plat (72 h, time 3 day): 129.9 x10_4/uL | RBC (72 h, time 3 day): 646.4 x10_4/ul | Ret (72 h, time 3 day): 5.2% | WBC (72 h, time 3 day): 75.1 x10_2/uL | KIDNEY_L (72 h, time 3 day): 1 g | KIDNEY_R (72 h, time 3 day): 1 g | KIDNEY_TOTAL (72 h, time 3 day): 2 g | LIVER (72 h, time 3 day): 11.2 g | A/G (72 h, time 3 day): 1.6 | ALP (72 h, time 3 day): 970 IU/L | ALT (72 h, time 3 day): 34.6 IU/L | AST (72 h, time 3 day): 63.6 IU/L | BUN (72 h, time 3 day): 15.6 mg/dL | CRE (72 h, time 3 day): 0.4 mg/dL | Ca (72 h, time 3 day): 10.8 mg/dL | Cl (72 h, time 3 day): 103.8 meq/L | DBIL (72 h, time 3 day): 0.086 mg/dL | GLC (72 h, time 3 day): 192.8 mg/dL | IP (72 h, time 3 day): 7.4 mg/dL | K (72 h, time 3 day): 4.1 meq/L | LDH (72 h, time 3 day): 185.2 IU/L | Na (72 h, time 3 day): 141.4 meq/L | PL (72 h, time 3 day): 152.6 mg/dL | RALB (72 h, time 3 day): 3.5 g/dL | TBIL (72 h, time 3 day): 0.1 mg/dL | TC (72 h, time 3 day): 82.2 mg/dL | TG (72 h, time 3 day): 80 mg/dL | TP (72 h, time 3 day): 5.7 g/dL | gamma-GTP (72 h, time 3 day): 1 IU/L | TERMINAL_BW ([…], time 7 day): 264.8 g | TERMINAL_BW ([…], time 14 day): 314.1 g | TERMINAL_BW ([…], time 28 day): 381.6 g | APTT ([…], time 7 day): 19.8 s | Bas ([…], time 7 day): 0% | Eos ([…], time 7 day): 1% | Fbg ([…], time 7 day): 233.2 mg/dL | Hb ([…], time 7 day): 14 g/dL | Ht ([…], time 7 day): 39.9% | Lym ([…], time 7 day): 81.8% | MCH ([…], time 7 day): 21.8 pg | MCHC ([…], time 7 day): 35.2% | MCV ([…], time 7 day): 62.1 fL | Mono ([…], time 7 day): 2.6% | Neu ([…], time 7 day): 13.6% | PT ([…], time 7 day): 12.3 s | Plat ([…], time 7 day): 127.2 x10_4/uL | RBC ([…], time 7 day): 643.2 x10_4/ul | Ret ([…], time 7 day): 5.2% | WBC ([…], time 7 day): 99.9 x10_2/uL | APTT ([…], time 14 day): 19.6 s | Bas ([…], time 14 day): 0% | Eos ([…], time 14 day): 0.8% | Fbg ([…], time 14 day): 243.8 mg/dL | Hb ([…], time 14 day): 14.7 g/dL | Ht ([…], time 14 day): 40.9% | Lym ([…], time 14 day): 78.6% | MCH ([…], time 14 day): 21.7 pg | MCHC ([…], time 14 day): 36% | MCV ([…], time 14 day): 60.4 fL | Mono ([…], time 14 day): 2% | Neu ([…], time 14 day): 16.4% | PT ([…], time 14 day): 11.9 s | Plat ([…], time 14 day): 101 x10_4/uL | RBC ([…], time 14 day): 678 x10_4/ul | Ret ([…], time 14 day): 4% | WBC ([…], time 14 day): 109.6 x10_2/uL | APTT ([…], time 28 day): 20.9 s | Bas ([…], time 28 day): 0.2% | Eos ([…], time 28 day): 1% | Fbg ([…], time 28 day): 228.8 mg/dL | Hb ([…], time 28 day): 15.7 g/dL | Ht ([…], time 28 day): 45.1% | Lym ([…], time 28 day): 82.6% | MCH ([…], time 28 day): 19.8 pg | MCHC ([…], time 28 day): 34.9% | MCV ([…], time 28 day): 56.5 fL | Mono ([…], time 28 day): 1.8% | Neu ([…], time 28 day): 12.8% | PT ([…], time 28 day): 12.2 s | Plat ([…], time 28 day): 103.7 x10_4/uL | RBC ([…], time 28 day): 797.4 x10_4/ul | Ret ([…], time 28 day): 1.8% | WBC ([…], time 28 day): 119.7 x10_2/uL | KIDNEY_L ([…], time 7 day): 1.1 g | KIDNEY_R ([…], time 7 day): 1.1 g | KIDNEY_TOTAL ([…], time 7 day): 2.2 g | KIDNEY_L ([…], time 14 day): 1.2 g | KIDNEY_R ([…], time 14 day): 1.2 g | KIDNEY_TOTAL ([…], time 14 day): 2.4 g | KIDNEY_L ([…], time 28 day): 1.4 g | KIDNEY_R ([…], time 28 day): 1.3 g | KIDNEY_TOTAL ([…], time 28 day): 2.7 g | LIVER ([…], time 7 day): 12.5 g | LIVER ([…], time 14 day): 14.7 g | LIVER ([…], time 28 day): 15.5 g | A/G ([…], time 7 day): 1.5 | ALP ([…], time 7 day): 852.4 IU/L | ALT ([…], time 7 day): 32.4 IU/L | AST ([…], time 7 day): 61.2 IU/L | BUN ([…], time 7 day): 17.8 mg/dL | CRE ([…], time 7 day): 0.4 mg/dL | Ca ([…], time 7 day): 10.8 mg/dL | Cl ([…], time 7 day): 103 meq/L | DBIL ([…], time 7 day): 0.1 mg/dL | GLC ([…], time 7 day): 223.6 mg/dL | IP ([…], time 7 day): 7.9 mg/dL | K ([…], time 7 day): 3.9 meq/L | LDH ([…], time 7 day): 174.4 IU/L | Na ([…], time 7 day): 139.6 meq/L | PL ([…], time 7 day): 149.2 mg/dL | RALB ([…], time 7 day): 3.4 g/dL | TBIL ([…], time 7 day): 0.2 mg/dL | TC ([…], time 7 day): 73.2 mg/dL | TG ([…], time 7 day): 125.4 mg/dL | TP ([…], time 7 day): 5.6 g/dL | gamma-GTP ([…], time 7 day): 1.2 IU/L | A/G ([…], time 14 day): 1.4 | ALP ([…], time 14 day): 793 IU/L | ALT ([…], time 14 day): 35.6 IU/L | AST ([…], time 14 day): 63.2 IU/L | BUN ([…], time 14 day): 16.4 mg/dL | CRE ([…], time 14 day): 0.5 mg/dL | Ca ([…], time 14 day): 10.7 mg/dL | Cl ([…], time 14 day): 103.6 meq/L | DBIL ([…], time 14 day): 0.1 mg/dL | GLC ([…], time 14 day): 190.4 mg/dL | IP ([…], time 14 day): 6.9 mg/dL | K ([…], time 14 day): 3.9 meq/L | LDH ([…], time 14 day): 180 IU/L | Na ([…], time 14 day): 142 meq/L | PL ([…], time 14 day): 159.4 mg/dL | RALB ([…], time 14 day): 3.5 g/dL | TBIL ([…], time 14 day): 0.2 mg/dL | TC ([…], time 14 day): 75.6 mg/dL | TG ([…], time 14 day): 152 mg/dL | TP ([…], time 14 day): 6 g/dL | gamma-GTP ([…], time 14 day): 1.2 IU/L | A/G ([…], time 28 day): 1.3 | ALP ([…], time 28 day): 621.4 IU/L | ALT ([…], time 28 day): 32.8 IU/L | AST ([…], time 28 day): 63.4 IU/L | BUN ([…], time 28 day): 17.2 mg/dL | CRE ([…], time 28 day): 0.5 mg/dL | Ca ([…], time 28 day): 10.3 mg/dL | Cl ([…], time 28 day): 103.2 meq/L | DBIL ([…], time 28 day): 0.094 mg/dL | GLC ([…], time 28 day): 220.2 mg/dL | IP ([…], time 28 day): 6.6 mg/dL | K ([…], time 28 day): 3.6 meq/L | LDH ([…], time 28 day): 164.4 IU/L | Na ([…], time 28 day): 141.4 meq/L | PL ([…], time 28 day): 138.4 mg/dL | RALB ([…], time 28 day): 3.5 g/dL | TBIL ([…], time 28 day): 0.2 mg/dL | TC ([…], time 28 day): 65.2 mg/dL | TG ([…], time 28 day): 107.2 mg/dL | TP ([…], time 28 day): 6.3 g/dL | gamma-GTP ([…], time 28 day): 1.2 IU/L

Source: ChEMBL document CHEMBL3885861, “Open TG-GATES”
